Reference: ChEMBL document CHEMBL3992500, “Design, facile synthesis and biological evaluations of novel pyrano[3,2-a]phenazine hybrid molecules as antitumor agents” (Eur J Med Chem, 2017)
Active and inactive are the calls of the source. The rule behind the calls is not given here.

Legend:
HCT-116 = assay: Antiproliferative activity against human HCT116 cells after 48 hrs by MTT assay; assay type: functional, cell-based; settings: HCT-116, 48 h
MCF7 = assay: Antiproliferative activity against human MCF7 cells after 48 hrs by MTT assay; assay type: functional, cell-based; settings: MCF7, 48 h
HepG2 = assay: Antiproliferative activity against human HepG2 cells after 48 hrs by MTT assay; assay type: functional, cell-based; settings: HepG2, 48 h
A549 = assay: Antiproliferative activity against human A549 cells after 48 hrs by MTT assay; assay type: functional, cell-based; settings: A549, 48 h
[1] = Antitumor activity against mouse H22-H8D8 cells implanted in ICR mouse assessed as tumor growth inhibition at 5 mg/kg, iv relative to control; assay type: functional; settings: read-out: TGI
[2] = Antitumor activity against mouse H22-H8D8 cells implanted in ICR mouse assessed as tumor growth inhibition at 10 mg/kg, iv relative to control; assay type: functional; settings: read-out: TGI
[3] = Antitumor activity against mouse H22-H8D8 cells implanted in ICR mouse assessed as tumor growth inhibition at 20 mg/kg, iv relative to control; assay type: functional; settings: read-out: TGI
Mus musculus [4] = assay: Toxicity in ICR mouse implanted with mouse H22-H8D8 cells assessed as body weight at 5 mg/kg, iv (reference value: 29.89 to 33.78 g); assay type: organism-based; settings: in vivo
Mus musculus [5] = assay: Toxicity in ICR mouse implanted with mouse H22-H8D8 cells assessed as body weight at 10 mg/kg, iv (reference value: 29.89 to 33.78 g); assay type: organism-based; settings: in vivo
Mus musculus [6] = assay: Toxicity in ICR mouse implanted with mouse H22-H8D8 cells assessed as body weight at 20 mg/kg, iv (reference value: 29.89 to 33.78 g); assay type: organism-based; settings: in vivo
[7] = biological target: T1, DNA topoisomerase 1 (Homo sapiens) (UniProt P11387); assay: Inhibition of DNA topoisomerase-1 (unknown origin) assessed as reduction in enzyme-catalyzed relaxation of pBR322 DNA substrate at 20 uM after 30 mins by ethidium bromide staining based electrophoresis
T1 sequence (whole entry): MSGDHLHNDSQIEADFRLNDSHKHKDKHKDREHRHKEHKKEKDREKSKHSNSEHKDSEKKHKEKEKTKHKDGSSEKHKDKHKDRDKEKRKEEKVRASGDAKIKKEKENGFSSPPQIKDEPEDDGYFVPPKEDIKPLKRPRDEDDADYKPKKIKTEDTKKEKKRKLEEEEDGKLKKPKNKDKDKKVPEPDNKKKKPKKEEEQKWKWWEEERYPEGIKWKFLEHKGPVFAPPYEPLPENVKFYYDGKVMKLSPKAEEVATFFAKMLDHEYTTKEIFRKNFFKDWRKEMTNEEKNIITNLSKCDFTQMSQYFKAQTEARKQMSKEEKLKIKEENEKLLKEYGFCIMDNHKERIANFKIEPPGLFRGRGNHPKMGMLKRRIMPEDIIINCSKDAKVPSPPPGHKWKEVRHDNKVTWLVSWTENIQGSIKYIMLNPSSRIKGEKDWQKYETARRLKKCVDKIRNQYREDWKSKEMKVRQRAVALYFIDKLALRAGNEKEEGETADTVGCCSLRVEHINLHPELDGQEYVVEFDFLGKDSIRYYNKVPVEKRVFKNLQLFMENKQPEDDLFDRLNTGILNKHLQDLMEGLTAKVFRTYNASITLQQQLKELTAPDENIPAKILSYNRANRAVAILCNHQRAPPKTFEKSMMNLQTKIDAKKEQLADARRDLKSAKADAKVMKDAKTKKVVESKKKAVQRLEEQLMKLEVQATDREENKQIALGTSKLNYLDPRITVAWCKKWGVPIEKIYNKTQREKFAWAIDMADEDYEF

[8] = biological target: DNA topoisomerase 2-alpha (Homo sapiens) (UniProt P11388); assay: Inhibition of DNA topoisomerase-2alpha (unknown origin) assessed as reduction in enzyme-catalyzed relaxation of pBR322 DNA substrate at 20 uM after 30 mins by ethidium bromide staining based electrophoresis
DNA topoisomerase 2-alpha (Homo sapiens), sequence (P11388 whole entry): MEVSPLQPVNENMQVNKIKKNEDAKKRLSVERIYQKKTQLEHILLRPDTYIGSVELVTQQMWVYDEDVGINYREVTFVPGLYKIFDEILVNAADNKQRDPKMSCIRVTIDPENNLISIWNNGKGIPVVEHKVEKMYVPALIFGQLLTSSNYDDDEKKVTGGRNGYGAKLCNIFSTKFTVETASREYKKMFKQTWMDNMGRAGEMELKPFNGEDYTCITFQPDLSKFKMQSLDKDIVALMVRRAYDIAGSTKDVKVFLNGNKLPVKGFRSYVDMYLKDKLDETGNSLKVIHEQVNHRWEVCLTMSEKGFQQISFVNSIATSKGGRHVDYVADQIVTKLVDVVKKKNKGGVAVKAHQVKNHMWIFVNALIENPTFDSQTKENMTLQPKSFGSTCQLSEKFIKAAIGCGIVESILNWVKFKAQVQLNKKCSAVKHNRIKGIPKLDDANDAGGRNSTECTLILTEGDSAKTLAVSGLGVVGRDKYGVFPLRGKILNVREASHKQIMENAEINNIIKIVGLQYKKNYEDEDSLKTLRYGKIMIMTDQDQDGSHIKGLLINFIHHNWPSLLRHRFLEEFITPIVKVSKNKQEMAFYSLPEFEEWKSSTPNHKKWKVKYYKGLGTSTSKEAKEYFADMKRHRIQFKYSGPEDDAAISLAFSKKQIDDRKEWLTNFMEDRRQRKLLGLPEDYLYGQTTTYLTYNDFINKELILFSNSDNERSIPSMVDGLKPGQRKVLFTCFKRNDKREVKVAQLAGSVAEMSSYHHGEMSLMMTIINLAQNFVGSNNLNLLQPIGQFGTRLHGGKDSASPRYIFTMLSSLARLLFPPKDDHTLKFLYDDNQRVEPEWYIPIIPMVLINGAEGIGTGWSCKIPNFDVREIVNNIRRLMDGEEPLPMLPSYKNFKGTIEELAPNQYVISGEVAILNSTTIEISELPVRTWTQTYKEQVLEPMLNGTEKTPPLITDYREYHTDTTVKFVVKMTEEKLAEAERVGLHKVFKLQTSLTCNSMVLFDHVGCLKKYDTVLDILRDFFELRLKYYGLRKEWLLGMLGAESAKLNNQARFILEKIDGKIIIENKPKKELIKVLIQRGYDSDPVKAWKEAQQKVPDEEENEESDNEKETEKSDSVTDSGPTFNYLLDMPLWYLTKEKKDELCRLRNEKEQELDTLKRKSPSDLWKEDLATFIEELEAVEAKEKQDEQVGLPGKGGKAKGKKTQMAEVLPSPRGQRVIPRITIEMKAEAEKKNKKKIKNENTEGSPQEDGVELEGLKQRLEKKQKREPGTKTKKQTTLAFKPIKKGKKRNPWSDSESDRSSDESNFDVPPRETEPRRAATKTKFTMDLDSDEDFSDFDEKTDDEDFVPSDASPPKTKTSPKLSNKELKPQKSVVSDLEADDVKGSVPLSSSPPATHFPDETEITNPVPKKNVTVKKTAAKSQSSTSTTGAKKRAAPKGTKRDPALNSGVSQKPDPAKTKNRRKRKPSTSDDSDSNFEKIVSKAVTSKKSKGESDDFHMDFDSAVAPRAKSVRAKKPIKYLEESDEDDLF

Row | Compound | IC50 (HCT-116) | IC50 (MCF7) | IC50 (HepG2) | IC50 (A549) | inhibition in vivo at 5 mg/kg [1] | inhibition in vivo at 10 mg/kg [2] | inhibition in vivo at 20 mg/kg [3] | Activity (Mus musculus [4]) | Activity (Mus musculus [5]) | Activity (Mus musculus [6]) | inhibition [7] | inhibition [8]
1 | CCOC(=O)C1=C(N)Oc2c(N)cc3nc4ccccc4nc3c2C1c1c(Cl)cccc1Cl (stereo not drawn) | 12.4 µM | > 50 µM | 40.1 µM | > 50 µM |  |  |  |  |  |  |  | 
2 | COc1ccc(C2C(C#N)=C(N)Oc3c(N)cc4nc5ccccc5nc4c32)c(OC)c1OC (stereo not drawn) | 47.1 µM | 28.1 µM | 15.3 µM | 20.3 µM |  |  |  |  |  |  |  | 
3 | N#CC1=C(N)Oc2c(N)cc3nc4ccccc4nc3c2C1c1ccc(Cl)cc1 (stereo not drawn) | 10.2 µM | 18.6 µM | 2.2 µM | 9.5 µM | 0.09% | 11.7% | 57.7% | 40 g | 41.33 g | 37.22 g | Active | Active
4 | CCOC(=O)C1=C(N)Oc2c(N)cc3nc4ccccc4nc3c2C1c1ccccc1Br (stereo not drawn) | 30.2 µM | 28.4 µM | 5 µM | 6.32 µM | 38.9% | 28.9% | 45.6% | 35.78 g | 37.44 g | 35.56 g | Active | Active
5 | COc1ccc(C2C(C#N)=C(N)Oc3c(N)cc4nc5ccccc5nc4c32)cc1OC (stereo not drawn) | > 50 µM | > 50 µM | > 50 µM | > 50 µM |  |  |  |  |  |  |  | 
6 | N#CC1=C(N)Oc2c(N)cc3nc4ccccc4nc3c2C1c1ccc([N+](=O)[O-])cc1 (stereo not drawn) | 14.5 µM | > 50 µM | 18.1 µM | 15.9 µM |  |  |  |  |  |  |  | 
7 | N#CC1=C(N)Oc2c(N)cc3nc4ccccc4nc3c2C1c1ccccc1Cl (stereo not drawn) | 7.4 µM | 25.1 µM | 8.4 µM | 6.3 µM |  |  |  |  |  |  |  | 
8 | CCOC(=O)C1=C(N)Oc2c(N)cc3nc4ccccc4nc3c2C1c1ccc(OC)c(F)c1 (stereo not drawn) | 20.5 µM | > 50 µM | 8.5 µM | 24.8 µM |  |  |  |  |  |  |  | 
